`COc1ccc2[nH]c3c(c2c1)CC(C)CC3` (stereo not drawn) showed a melting point of 59 to 61 °C. The value for `N#CC1CSCCS1` (stereo not drawn) was 76 to 78 °C; that for `CN(CC(=O)O)S(=O)(=O)C=Cc1ccccc1` was 150 to 152 °C.

Consider `COc1ccc(NS(=O)(=O)c2ccc(C=CC(=O)O)cc2)cc1`, for which the melting point was in the range of 238 to 240 °C. The value for `NS(=O)(=O)Cc1ccc(Cl)cc1Br` was 169 to 171 °C. The value for `NC(=O)Cc1ccc2c(c1)CCC2` was 166 to 168 °C.

In the case of `O=c1cc(CCl)nc2ccc(Cl)cn12`, the melting point is 149 to 151 °C. The value for `COc1c(C(=O)O)sc(C)c1Br` was 165 to 167 °C; that for `CC(Cl)C(=O)Nc1cccc(Cl)c1Cl` (stereo not drawn) was 96 to 98 °C; that for `NNC(=O)C1CCN(c2ncccn2)CC1` was 237 to 239 °C. The value for `NCCCc1c[nH]c2ccccc12` was 62 to 64 °C; that for `Cc1ccc(C#N)cc1S(N)(=O)=O` was 194 to 196 °C; that for `O=C(O)c1ccn(C2CCCC2)n1` was 108 to 110 °C. In the case of `OCc1cn(-c2ccccc2)nc1-c1ccccc1`, the melting point is 91 to 93 °C. In the case of `Nc1cn[nH]c(=O)c1Cl` it was 299 to 301 °C; in that of `Cc1cccc(C(=O)N2CCSCC2)c1N`, 113 to 115 °C. In the case of `N#CC(Cl)c1c(F)cccc1Cl` (stereo not drawn) it was 49 to 51 °C. In the case of `O=C(CCl)N1CCNC1=O` it was 195 to 197 °C; in that of `Cc1cc(=O)n2nc(N)[nH]c2n1`, 367 to 369 °C; in that of `CC(C)c1ccc(-c2nnc(N)s2)cc1`, 205 to 207 °C. The compound `O=C(c1ccccc1O)N1CCCCC1` showed a melting point of 133 to 135 °C.

`Cc1ccc(F)cc1NC(=O)C(C)Cl` (stereo not drawn) came in with a melting point of 101 to 103 °C.

Compound `CCCCn1c(N)c(NCc2ccccc2)c(=O)[nH]c1=O` showed a melting point of 207 to 209 °C. `COc1ccc(C(CN)NC(=O)OC(C)(C)C)cc1` (stereo not drawn) showed a melting point of 90 to 92 °C. The value for `Clc1ccc(-c2nnc(Cl)c3ccccc23)cc1Cl` was 219 to 221 °C; that for `CC(c1nc(-c2ccc(Cl)cc2)no1)N1CCNCC1` (stereo not drawn) was 78 to 80 °C; that for `N#Cc1ccc(F)c(Cl)c1Cl` was 65 to 67 °C. As for `Sc1ccc(-c2ccccc2)cc1`, the melting point fell in the range of 106 to 108 °C. Take `Sc1nnc(N2CCOCC2)n1Cc1ccco1`: the melting point was 151 to 153 °C. The value for `Cc1nnc(NCCC(C)C)c2ccccc12` was 129 to 131 °C; that for `Cc1csc(-c2no[nH]c2=N)n1` was 147 to 149 °C.

With `Cc1cc(C)c(C(=O)O)[nH]1`, the melting point lay in the range of 109 to 111 °C.

`COc1ccc(C(O)CCC(=O)O)cc1` (stereo not drawn) came in with a melting point of 92 to 94 °C. Compound `CCC(=O)Nc1ccc(C(=O)CCl)cc1` gave a melting point of 104 to 106 °C.

`Nc1cc(-n2nnnc2C2CC2)ccc1F` came in with a melting point of 112 to 114 °C.

For `CCCCn1c(N)c(NCC)c(=O)[nH]c1=O`, the melting point was in the range of 285 to 286 °C. With `Cc1noc(C(F)(F)F)c1C(=O)O`, the melting point lay in the range of 140 to 142 °C. The value for `Cc1ccc(CNC(=O)C(C#N)=CN(C)C)cc1` was 135 to 137 °C. In the case of `CCC(C)C(=O)N1CCCC(C(=O)O)C1` (stereo not drawn) it was 118 to 120 °C; in that of `O=C(O)c1ccc(OC2CCCC2)cc1`, 171 to 173 °C. In the case of `Nc1cc(I)ccc1Br` it was 64 to 66 °C; in that of `Cc1ccc(S(=O)(=O)N2CCC(C(=O)O)CC2)cc1`, 181 to 183 °C; in that of `N#CCc1nc(C23CC4CC(CC(C4)C2)C3)cs1`, 57 to 59 °C.

Take `O=C(O)C=Cc1csc(Br)c1`: the melting point lay within 187 to 189 °C. The compound `O=C(O)CCc1c(-c2ccc(F)cc2)[nH]c2ccccc12` had a melting point of 114 to 121 °C.

`O=C(O)c1ccc(F)c(COCc2ccccc2)c1` had a melting point of 95 to 97 °C. The compound `Nc1ccc(Cl)c(-n2nnnc2C2CC2)c1` displayed a melting point of 135 to 137 °C. The value for `CS(=O)(=O)c1ccccc1F` was 49 to 53 °C; that for `O=C(O)c1ccccc1SCc1ccsc1` was 213 to 215 °C; that for `Cc1ccc(F)c(NC(=S)NN)c1` was 133 to 135 °C.

For `N#Cc1cnn(-c2ccccc2)c1N`, the melting point lay in the range of 137 to 139 °C. In the case of `O=C(Nc1cccc2cccnc12)OCC(F)(F)F` it was 75 to 77 °C; in that of `ClCCc1nnnn1-c1ccccc1`, 45 to 47 °C.

In turn, `CCc1ccc2nc(N)sc2c1` gave a melting point of 105 to 107 °C. The value for `O=C(O)CN1C(=O)Cc2ccccc2C1=O` was 246 to 248 °C; that for `Nc1ccn(-c2ncccc2F)n1` was 89 to 91 °C; that for `Nc1cc(Cl)ccc1NCc1ccccc1` was 77 to 81 °C.

On to `O=C(CCl)NC1CCN(C(=O)CCc2ccccc2)CC1`, for which the melting point is 117 to 119 °C. The value for `O=Cc1cc(O)c(O)c(Br)c1` was 219 to 221 °C; that for `CCN(CC)C(=O)c1cccc(N)c1` was 81 to 83 °C; that for `Nc1nc(SCCO)n[nH]1` was 126 to 128 °C. Compound `CC(C)(O)c1cnc(Cl)nc1` registered a melting point of 98 to 100 °C.

On to `N#Cc1ccc(C(=O)NNC(=O)CCl)cc1`, for which the melting point was in the range of 185 to 187 °C. In the case of `Nc1ccn(-c2cccc(C(F)(F)F)c2)n1` it was 80 to 82 °C. The value for `NS(=O)(=O)CC1CCOCC1` was 85 to 87 °C; that for `NNC(=S)Nc1cc(S(=O)(=O)N2CCOCC2)ccc1Cl` was 181 to 183 °C. Compound `CC(C)n1cccc1C(=O)O` yielded a melting point of 106 to 108 °C.

Consider `c1ccc2c(c1)CC(n1ccnc1)CN2` (stereo not drawn), for which the melting point is 110 to 112 °C. In the case of `Cc1nn(C)c2c1NCC1CCCN21` (stereo not drawn) it was 159 to 161 °C; in that of `Cc1nc2ccccn2c1CN1CCNCC1`, 163 to 165 °C. Consider `O=C(O)CNCc1c(F)cccc1Cl`, for which the melting point was 184 to 186 °C.

As for `O=Cc1ccccc1OCc1ccncc1`, the melting point was 65 to 67 °C. The value for `CC(C)c1cnc(S)n1C` was 124 to 126 °C; that for `Cc1cc(O)nc(C2CC2)n1` was 190 to 192 °C; that for `O=C(C1Cc2ccccc2CN1)N1CCCC1` (stereo not drawn) was 88 to 90 °C.

Compound `O=S(=O)(c1ccc(S)nc1)N1CCCC1` showed a melting point of 179 to 181 °C. In the case of `CN(c1ccccc1)c1ccc(C(=O)O)cn1` it was 176 to 178 °C; in that of `COc1ccc(CCCCC(=O)O)cc1`, 112 to 114 °C. `O=c1n(CCCl)nc2ccccn12`: the melting point was 139 to 141 °C. In the case of `O=C(NC(Cc1ccc(O)cc1)C(=O)O)c1cnccn1` (stereo not drawn) it was 234 to 236 °C.

`COc1ccc(Nc2nc3cc(S(=O)(=O)N4CCOCC4)ccc3o2)cc1` had a melting point of 219 to 221 °C. The value for `CC1(O)CCc2ccccc21` (stereo not drawn) was 56 to 58 °C; that for `OCc1coc(-c2ccccc2)n1` was 79 to 81 °C. As to `Cc1cnn([N+](=O)[O-])c1`, the melting point lay in the range of 41 to 43 °C.

In turn, `COc1ccc(OC)c(-c2nn(-c3ccccc3)cc2C(=O)O)c1` had a melting point of 174 to 176 °C. The value for `CCn1nc(C)c(C(=O)O)c1C(F)(F)Cl` was 111 to 113 °C; that for `O=C(O)CN1C(=O)c2ccccc2S1(=O)=O` was 218 to 220 °C.

With `O=C(O)c1cc(S(=O)(=O)NCc2ccco2)c(Cl)cc1Cl`, the melting point fell in the range of 149 to 151 °C. The value for `O=C(O)c1cc2sc3ccccc3c2s1` was 249 to 251 °C; that for `COC(=O)c1ccncc1C(=O)OC` was 55 to 57 °C; that for `Nc1nc(CCl)nc2ccccc12` was 163 to 165 °C.

`Cc1nn(CCO)c(C(F)F)c1C(=O)O` returned a melting point of 148 to 150 °C. For `CC(=O)c1ccc2c(c1)C(C)(C)C(=O)N2`, the melting point lay within 187 to 189 °C. In the case of `O=C(O)C(c1ccccc1F)N1CCOCC1` (stereo not drawn) it was 189 to 191 °C; in that of `Cc1ccc(-n2nc(C)c(CC(=O)O)c2C)cc1Cl`, 146 to 148 °C; in that of `NNC(=O)C(=O)N1CCCC1`, 117 to 119 °C.

Turning to `O=C(O)c1cc(-c2cccc(Cl)c2)nc2nc(N3CCCCC3)sc12`, the melting point was 199 to 203 °C.

Compound `O=C(O)c1ccc(Br)nn1` returned a melting point of 140 to 142 °C.

With `O=c1[nH]c2ccccc2c(=O)n1CCCO`, the melting point was 174 to 176 °C. In the case of `NC(=O)c1cccc(Cl)n1` it was 124 to 126 °C; in that of `CCC(=O)c1ccc(OCC(=O)O)cc1`, 131 to 133 °C. The value for `Sc1nnnn1C1CC1` was 127 to 129 °C; that for `NC(=O)c1cccnc1S` was 297 to 299 °C. The value for `CC(C)C(Br)C(=O)Nc1ccccc1C(F)(F)F` (stereo not drawn) was 123 to 125 °C; that for `O=C(O)c1cc(S(=O)(=O)Cl)ccc1Br` was 115 to 117 °C; that for `Cc1cc(F)c(N)c(I)c1` was 32 to 34 °C. For the compound `Nc1nc(Cl)ccc1C(=O)O`, the melting point lay in the range of 216 to 218 °C. The value for `O=C(O)c1ccc(CN2CCCCC2=O)cc1` was 181 to 183 °C. In the case of `O=C(O)c1cc2ccccc2c2cccnc12` it was 200 to 202 °C; in that of `NC(=S)NN=Cc1cccs1`, 161 to 163 °C. In the case of `CNC(=O)C(Br)Cc1ccccc1` (stereo not drawn) it was 103 to 105 °C; in that of `CC(=O)Nc1cc(F)ccc1-c1csc(N)n1`, 127 to 129 °C. Take `Cc1cc(N2CCOCC2)ccc1N`: the melting point is 89 to 91 °C. Regarding `COCCNS(=O)(=O)c1ccc(C#N)cc1`, the melting point lay in the range of 88 to 90 °C. The value for `CCN(CC)c1ccc(-c2nnc(S)o2)cc1` was 163 to 165 °C; that for `O=C(O)Cc1c[nH]c2cc(Cl)ccc12` was 185 to 187 °C.

For the compound `c1cc2c[nH]nc2cn1`, the melting point was in the range of 104 to 106 °C. In the case of `O=C(O)c1ccc(Cn2cccc2)cc1` it was 161 to 163 °C; in that of `Nc1cc(S(=O)(=O)N2CCCCC2)ccc1Cl`, 129 to 131 °C; in that of `Cc1ccc(-n2nnnc2S)cc1C`, 110 to 112 °C.

In turn, `O=C(O)CCC1NC(=O)N(c2ccc(F)cc2F)C1=O` (stereo not drawn) yielded a melting point of 183 to 185 °C. In the case of `O=C(CCl)NC1C2CC3CC(C2)CC1C3` (stereo not drawn) it was 118 to 122 °C. In the case of `C#CCn1cnc(-c2ccccc2)c1N` it was 126 to 128 °C.

By melting point is commonly meant the temperature, or range, at which the solid turns liquid.

Source of the values: a melting point compilation (Tetko et al.).
